From patent publication US20090143455A1, “Pyrazoles Useful in the Treatment of Inflammation” (priority 2005, published 2009)

Biological target: T1, purified human 15-lipoxygenase (Homo sapiens, UniProt P16050)
T1 sequence (P16050 1-662): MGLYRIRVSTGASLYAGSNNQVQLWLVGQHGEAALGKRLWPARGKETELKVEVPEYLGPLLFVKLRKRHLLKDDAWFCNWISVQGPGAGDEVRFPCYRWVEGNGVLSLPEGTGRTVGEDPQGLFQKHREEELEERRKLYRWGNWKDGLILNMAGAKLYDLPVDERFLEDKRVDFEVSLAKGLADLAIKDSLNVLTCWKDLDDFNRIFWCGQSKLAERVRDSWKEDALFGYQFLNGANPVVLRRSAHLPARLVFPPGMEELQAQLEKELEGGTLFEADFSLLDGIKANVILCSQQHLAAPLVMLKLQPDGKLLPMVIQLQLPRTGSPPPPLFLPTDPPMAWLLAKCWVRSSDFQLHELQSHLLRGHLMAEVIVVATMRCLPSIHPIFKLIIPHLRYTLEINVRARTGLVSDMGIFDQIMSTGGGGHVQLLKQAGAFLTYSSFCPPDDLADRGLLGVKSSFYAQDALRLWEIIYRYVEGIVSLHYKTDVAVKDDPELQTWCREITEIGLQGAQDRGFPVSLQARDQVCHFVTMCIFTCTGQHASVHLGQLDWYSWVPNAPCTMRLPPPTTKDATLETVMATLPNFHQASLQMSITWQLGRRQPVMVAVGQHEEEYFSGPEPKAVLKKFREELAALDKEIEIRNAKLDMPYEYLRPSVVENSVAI
Assay: 15-lipoxygenase inhibition assay (arachidonic acid oxidation, HPLC readout)
Format: biochemical
Conditions: arachidonic acid substrate, room temperature
Method: The assay employed takes advantage of the ability of lipoxygenases to oxidize polyunsaturated fatty acids, containing a 1,4-cis-pentadiene configuration, to their corresponding hydroperoxy or hydroxyl derivatives. In this particular assay, the lipoxygenase was a purified human 15-lipoxygenase and the fatty acid was arachidonic acid. The assay is performed at room temperature (20-22° C.) and the following are added to each well in a 96-well microtiter plate:
a) 35 μL phosphate buffered saline […] (pH 7.4); b) inhibitor (i.e. compound) or vehicle (0.5 μl DMSO); c) 10 μL of a 10× concentrated solution of 15-lipoxygenase in PBS. […] The plate is then incubated for 10 minutes at room temperature; e) the enzymatic reaction is terminated by the addition of 100 μl MeOH; and f) the amount of 15-hydroperoxy-eicosatetraenoic acid or 15-hydroxy-eicosatetraenoic acid is measured by reverse phase HPLC.

| Structure (SMILES) | IC50 [µM] |
| --- | --- |
| O=C(Nc1ccc(F)cc1F)c1cc(Cl)[nH]n1 [Example 5, 5-Chloro-N-(2,4-difluorophenyl)pyrazole-3-carboxamide] | 0.265 |
| O=C(Nc1ccc(F)cc1)c1cc(Cl)[nH]n1 [Example 7, 5-Chloro-N-(4-fluorophenyl)pyrazole-3-carboxamide] | 0.182 |
| O=C(Nc1ccc(Cl)cc1)c1cc(Cl)[nH]n1 [Example 8, 5-Chloro-N-(4-chlorophenyl)pyrazole-3-carboxamide] | 0.078 |
| O=C(Nc1ccccc1OC(F)F)c1cc(Cl)[nH]n1 [Example 19, 5-Chloro-N-(2-difluoro-methoxyphenyl)pyrazole-3-carboxamide] | 0.069 |
